pIC50: −log10 of the molar value.
Test: Inhibition of human CXCR3 by chemotaxis assay

pIC50: 7.64
Structure (SMILES): C[C@H]1CN(c2ncc(C(=O)NCc3ccc(F)c(F)c3)cc2Cl)CCN1C1CCN(Cc2ccc(Cl)cc2)CC1 [(S)-5-chloro-6-(4-(1-(4-chlorobenzyl)piperidin-4-yl)-3-methylpiperazin-1-yl)-N-(3,4-difluorobenzyl)nicotinamide]

From BindingDB's records for doi:10.1016/j.bmcl.2010.12.114 (Ligand Pharmaceuticals, 2011)
